25 molecules from patent US10377742B2, “AMPK-activating heterocyclic compounds and methods for using the same” (Rigel Pharmaceuticals, Inc., priority 2010, dated 2019) can be followed below.

In the assay the target is AMPK. As to the kind of experiment: AMPK activation, enzyme-linked immunosorbent assay. Type of assay: biochemical. As to the method: Compounds were assayed for their ability to activate AMPK using an enzyme-linked immunosorbent assay. Reagents and procedures for measuring AMPK activation are well known and kits for AMPK activation assays are commercially available.
For the molecule `N#Cc1ccc(CN2CC[C@@H](NC(=O)c3ccc(C(=O)N4CCC(Oc5ccc(S(=O)(=O)C(F)(F)F)cc5)CC4)nc3)C(F)C2)cc1` (stereo in doubt) [Compound 451, N-((3S,4R)-1-(4-cyanobenzyl)-3-fluoropiperidin-4-yl)-6-(4-(4-(trifluoromethylsulfonyl)phenoxy)piperidine-1-carbonyl)nicotinamide], the 50% effective concentration (EC50) is under 500 nM.

`COc1ccc(C(=O)C2CCN(C(=O)c3ccc(C(=O)N[C@@H]4CCN(Cc5csc(C)n5)C[C@@H]4F)cn3)CC2)cc1` [Compound 427, N-((3S,4R)-3-fluoro-1-((2-methylthiazol-4-yl)methyl)piperidin-4-yl)-6-(4-(4-methoxybenzoyl)piperidine-1-carbonyl)nicotinamide]: the half-maximal effective concentration (EC50) is 1000 to 5000 nM.

Consider `N#Cc1ccc(CN2CCC(NC(=O)c3ccc(C(=O)N4CCC(Cc5ccccc5)CC4)cn3)CC2)cc1` [Compound 124, 5-(4-benzylpiperidine-1-carbonyl)-N-(1-(4-cyanobenzyl)piperidin-4-yl)picolinamide], for which the EC50 is under 500 nM.

As for `N#Cc1ccc(OC2CCN(C(=O)c3ccc(C(=O)N[C@H]4CC[C@@H](Oc5ccc(F)cc5)CC4)cn3)CC2)cc1` [Compound 324, 6-(4-(4-cyanophenoxy)piperidine-1-carbonyl)-N-((cis)-4-(4-fluorophenoxy)cyclohexyl)nicotinamide], the EC50 is under 500 nM.

In turn, `N#Cc1ccc(O[C@H]2CC[C@@H](NC(=O)c3ccc(C(=O)N4CCN(Cc5ccc(F)cc5)CC4)nc3)CC2)cc1` [Compound 332, N-((cis)-4-(4-cyanophenoxy)cyclohexyl)-6-(4-(4-fluorobenzyl)piperazine-1-carbonyl)nicotinamide] yielded an EC50 of under 500 nM.

In turn, `COc1ccc(C(=O)C2CCN(C(=O)c3ccc(C(=O)N[C@@H]4CCN(Cc5ccc(C#N)c(F)c5)C[C@H]4F)cn3)CC2)cc1` (relative stereo) [Compound 354, N-((trans)-1-(4-cyano-3-fluorobenzyl)-3-fluoropiperidin-4-yl)-6-(4-(4-methoxybenzoyl)piperidine-1-carbonyl)nicotinamide] registered a half-maximal effective concentration (EC50) of under 500 nM.

For `N#Cc1ccc(O[C@H]2CC[C@@H](NC(=O)c3ccc(C(=O)N4CCC(C(=O)c5ccc(N6CCCC6)cc5)CC4)nc3)CC2)cc1` [Compound 442, N-((cis)-4-(4-cyanophenoxy)cyclohexyl)-6-(4-(4-(pyrrolidin-1-yl)benzoyl)piperidine-1-carbonyl)nicotinamide], the EC50 is under 500 nM.

Consider `N#Cc1ccc(OC2CCN(C(=O)c3ccc(C(=O)N[C@H]4CC[C@@H](Oc5ccc(F)cc5)CC4)nc3)CC2)cc1` [Compound 303, 5-(4-(4-cyanophenoxy)piperidine-1-carbonyl)-N-((cis)-4-(4-fluorophenoxy)cyclohexyl)picolinamide], for which the EC50 is under 500 nM.

Regarding `COc1ccc(C(=O)C2CCN(C(=O)c3ccc(C(=O)N[C@H]4CC[C@@H](Oc5ccc(F)cc5)CC4)cn3)CC2)cc1` [Compound 316, N-((cis)-4-(4-fluorophenoxy)cyclohexyl)-6-(4-(4-methoxybenzoyl)piperidine-1-carbonyl)nicotinamide], the EC50 was under 500 nM.

On to `N#Cc1ccc(CN2CCC(NC(=O)c3ccc(Nc4ccc(Cc5ccccc5)cc4)cn3)CC2)cc1` [Compound 108, 5-(4-benzylphenylamino)-N-(1-(4-cyanobenzyl)piperidin-4-yl)picolinamide], for which the EC50 is 500 to 1000 nM.

As to `COc1ccc(C(=O)C2CCN(C(=O)c3ccc(C(=O)N[C@@H]4CCN(Cc5cc(C)on5)C[C@@H]4F)cn3)CC2)cc1` [Compound 426, N-((3S,4R)-3-fluoro-1-((5-methylisoxazol-3-yl)methyl)piperidin-4-yl)-6-(4-(4-methoxybenzoyl)piperidine-1-carbonyl)nicotinamide], the EC50 was under 500 nM.

Molecule `CC(=O)c1ccc(OC2CCN(C(=O)c3ccc(C(=O)NC4CCC(Oc5ccc(C#N)cc5)CC4)cn3)CC2)cc1` (stereo not shown) [Compound 402, 6-(4-(4-acetylphenoxy)piperidine-1-carbonyl)-N-(4-(4-cyanophenoxy)cyclohexyl)nicotinamide] showed an EC50 of under 500 nM.

The molecule `N#Cc1ccc(CN2CCc3ccc(NC(=O)c4ccc(C(=O)N5CCN(Cc6ccc(F)cc6)CC5)cn4)cc3C2)cc1` [Compound 132, N-(2-(4-cyanobenzyl)-1,2,3,4-tetrahydroisoquinolin-7-yl)-5-(4-(4-fluorobenzyl)piperazine-1-carbonyl)picolinamide] displayed an EC50 of under 500 nM.

As for `O=C(N[C@H]1CC[C@@H](Oc2ccc(F)cc2)CC1)c1ccc(C(=O)N2CCC(C(=O)c3ccc(F)cc3)CC2)cn1` [Compound 304, 5-(4-(4-fluorobenzoyl)piperidine-1-carbonyl)-N-((cis)-4-(4-fluorophenoxy)cyclohexyl)picolinamide], the EC50 is under 500 nM.

Molecule `O=C(N[C@H]1CC[C@@H](Oc2ccc(F)cc2)CC1)c1ccc(C(=O)N2CCC(Oc3ccc(F)cc3)CC2)cn1` [Compound 312, N-((cis)-4-(4-fluorophenoxy)cyclohexyl)-5-(4-(4-fluorophenoxy)piperidine-1-carbonyl)picolinamide] gave a half-maximal effective concentration (EC50) of under 500 nM.

In turn, `N#Cc1ccc(OC2CCN(C(=O)c3ccc(C(=O)N[C@H]4CC[C@@H](Oc5ccc(C#N)cc5)CC4)cn3)CC2)cc1` [Compound 321, N-((cis)-4-(4-cyanophenoxy)cyclohexyl)-6-(4-(4-cyanophenoxy)piperidine-1-carbonyl)nicotinamide] gave an EC50 of under 500 nM.

As to `COc1ccc(C(=O)C2CCN(C(=O)c3ccc(C(=O)N[C@@H]4CCN(Cc5ccc(C#N)cc5)C[C@@H]4F)cn3)CC2)cc1` (relative stereo) [Compound 454, N-((cis)-1-(4-cyanobenzyl)-3-fluoropiperidin-4-yl)-6-(4-(4-methoxybenzoyl)piperidine-1-carbonyl)nicotinamide], the EC50 was under 500 nM.

In turn, `CS(=O)(=O)c1ccc(N2CCC(NC(=O)c3ccc(C(=O)N4CCN(Cc5ccc(F)cc5)CC4)nc3)CC2)cc1` [Compound 421, 6-(4-(4-fluorobenzyl)piperazine-1-carbonyl)-N-(1-(4-(methylsulfonyl)phenyl)piperidin-4-yl)nicotinamide] returned an EC50 of 1000 to 5000 nM.

The molecule `N#Cc1ccc(CN2CCC(NC(=O)c3ccc(C(=O)N4CCC(Oc5ccc(C#N)cc5)CC4)nn3)CC2)cc1` [Compound 388, N-(1-(4-cyanobenzyl)piperidin-4-yl)-6-(4-(4-cyanophenoxy)piperidine-1-carbonyl)pyridazine-3-carboxamide] came in with an EC50 of under 500 nM.

On to `COc1ccc(C(=O)C2CCN(C(=O)c3ccc(C(=O)N[C@@H]4CCN(Cc5ccc(OC(F)(F)F)cc5)C[C@H]4F)cn3)CC2)cc1` (relative stereo) [Compound 350, N-((trans)-3-fluoro-1-(4-(trifluoromethoxy)benzyl)piperidin-4-yl)-6-(4-(4-methoxybenzoyl)piperidine-1-carbonyl)nicotinamide], for which the concentration for a half-maximal effect (EC50) was under 500 nM.

In turn, `N#Cc1ccc(O[C@H]2CC[C@@H](NC(=O)c3ccc(C(=O)N4CCC(Oc5ccc(C(F)(F)F)cc5)CC4)cn3)CC2)cc1F` [Compound 199, N-((cis)-4-(4-cyano-3-fluorophenoxy)cyclohexyl)-5-(4-(4-(trifluoromethyl)phenoxy)piperidine-1-carbonyl)picolinamide] returned an EC50 of under 500 nM.

Molecule `COc1ccc(C(=O)C2CCN(C(=O)c3ccc(C(=O)N[C@@H]4CCN(Cc5ccc(OC(C)C)cc5)C[C@H]4F)cn3)CC2)cc1` (relative stereo) [Compound 353, N-((trans)-3-fluoro-1-(4-isopropoxybenzyl)piperidin-4-yl)-6-(4-(4-methoxybenzoyl)piperidine-1-carbonyl)nicotinamide] yielded a concentration giving a half-maximal response (EC50) of under 500 nM.

In the case of `N#Cc1ccc(O[C@H]2CC[C@@H](NC(=O)c3ccc(C(=O)N4CCC(Oc5cccc(NC(=O)C6CC6)c5)CC4)nc3)CC2)cc1` [Compound 434, N-((cis)-4-(4-cyanophenoxy)cyclohexyl)-6-(4-(3-(cyclopropanecarboxamido)phenoxy)piperidine-1-carbonyl)nicotinamide], the EC50 is under 500 nM.

`COc1ccc(C(=O)C2CCN(C(=O)c3ccc(C(=O)N[C@H]4CC[C@@H](Oc5cc(F)cc(F)c5)CC4)nc3)CC2)cc1` [Compound 300, N-((cis)-4-(3,5-difluorophenoxy)cyclohexyl)-5-(4-(4-methoxybenzoyl)piperidine-1-carbonyl)picolinamide] came in with an EC50 of under 500 nM.

Take `COc1ccc(C(=O)C2CCN(C(=O)c3ccc(C(=O)N[C@H]4CC[C@@H](Oc5ccc(F)cc5)CC4)nc3)CC2)cc1` [Compound 311, N-((cis)-4-(4-fluorophenoxy)cyclohexyl)-5-(4-(4-methoxybenzoyl)piperidine-1-carbonyl)picolinamide]: the 50% effective concentration (EC50) was under 500 nM.
